Test results published in patent publication US5358946A, “Heterocycle-substituted amides, carbamates and ureas as agents for the treatment of atherosclerosis” (The Du Pont Merck Pharmaceutical Company, priority 1992, dated 1994).

Biological target: T1, ACAT (Mus musculus, UniProt Q61263)
T1 construct: endogenous in cells; host or cells: J774.A1 (murine macrophage-like)
T1 sequence (Q61263 1-540): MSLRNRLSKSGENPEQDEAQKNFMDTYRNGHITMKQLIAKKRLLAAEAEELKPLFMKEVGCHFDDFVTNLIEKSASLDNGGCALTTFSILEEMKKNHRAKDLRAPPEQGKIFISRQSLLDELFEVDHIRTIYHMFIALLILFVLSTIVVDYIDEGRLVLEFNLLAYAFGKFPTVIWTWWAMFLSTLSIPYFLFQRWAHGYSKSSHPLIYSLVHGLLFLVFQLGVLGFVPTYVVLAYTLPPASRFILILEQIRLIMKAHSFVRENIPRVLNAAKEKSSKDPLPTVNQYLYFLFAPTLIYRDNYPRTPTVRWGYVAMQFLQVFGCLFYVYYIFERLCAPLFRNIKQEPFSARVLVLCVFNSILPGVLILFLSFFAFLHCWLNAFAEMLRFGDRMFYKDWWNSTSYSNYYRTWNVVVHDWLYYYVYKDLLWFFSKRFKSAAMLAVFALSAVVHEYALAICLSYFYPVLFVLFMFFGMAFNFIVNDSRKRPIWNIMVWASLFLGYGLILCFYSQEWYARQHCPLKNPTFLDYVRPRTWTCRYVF
Test: Inhibition of cholesterol esterification in the murine macrophage-like cell line J774.A1
Assay type: cell-based
Conditions: J774.A1 cells, ac-LDL loaded, 14C-oleic acid pulse
Experimental: The esterification of cholesterol was determined in the murine macrophage-like cell line J774.A1. Cells were seeded in 35 mm wells at a density of 300,000 cells per well in 2 mls of Dulbecco's Eagle Medium (DMEM) supplemented with 10% fetal bovine serum (FBS). Cells were incubated at 37° C. in an atmosphere of 5% CO2 and 93% humidity. After […] the media was changed to 0.68 mls 10% FBS-DMEM containing 34 μg of acetylated human low density lipoprotein (ac-LDL) to increase the intracellular concentration of cholesterol and promote esterification. At 41 hours, various inhibitors were added to the cells in DMSO (10 μl/ml maximum). At 43 hours, the cells were pulsed with 0.1 mM ^14 C-oleic acid (10,000 dpm/nmol) complexed with BSA (bovine serum albumin) to follow cholesterol ester formation. The experiment was terminated at 45 hours by washing the monolayers 3 times with 3 ml of Tris-buffered saline at 4° C. The lipids were extracted by incubating the monolayers with 1.5 ml of hexane: isopropanol (3:2, v/v) for 30 min. under gentle agitation. During this period, 10,000 dpm ^3 H-cholesterol oleate and 10 μg of unlabeled cholesteryl oleate, oleic acid, triolein and cholesterol were added as an […] standard and carriers. The organic solvent was removed and the cells were washed with an additional 1.0 ml of hexane: isopropanol which was combined with the original extract. The cells were allowed to dry overnight, digested with 2.0 ml of 0.2N sodium hydroxide for 1 hour and an aliquot of the solubilized protein used for protein determination using the Lowry method. […] Extracts were collected in scintillation vials to determine the amount of radioactivity. The conversion of oleic acid to cholesteryl ester in the control averaged 0.54 mmol/hour/mg protein and was increased upon the addition of ac-LDL to about 10.689±0.69 mmol/hour/mg protein.

SMILES	IC50
CCN(CC)CCN(CCCCCSc1nc(-c2ccccc2)c(-c2ccccc2)[nH]1)C(=O)NC(C)C [Example 1, N-[2-(diethylamino)ethyl]-N-[5-(4,5-diphenyl-1H-imidazol-2-ylthio)pentyl]-N'-(1-methylethyl)-urea]	580 nM
CCN(CC)CCN(CCCCCSc1nc(-c2ccccc2)c(-c2ccccc2)[nH]1)C(=O)Nc1ccc(F)cc1F [Example 2]	2180 nM
CCCCN(C)CCN(CCOCCSc1nc(-c2ccc(OC)cc2)c(-c2ccc(OC)cc2)[nH]1)C(=O)Nc1ccc(F)cc1F [Example 32, N-[2-(2-(4,5-bis(4-methoxyphenyl)-1H-imidazol-2-ylthio)ethoxy)ethyl]-N-[2-(N-butyl-N-methylamino)ethyl]-N'-(2,4-difluorophenyl) urea]	630 nM
CCCCCCCN(CCN(C)CCSc1nc(-c2ccccc2)c(-c2ccccc2)[nH]1)C(=O)Nc1ccc(F)cc1F [Example 101, N'-(2,4-difluorophenyl)-N-[2-[2-(4,5-diphenyl-1H-imidazol-2-ylthio)ethyl]-N-[methylamino]ethyl]-N-heptyl-urea]	1470 nM
CCCCCCCN(CCN(C)CCSc1nc(-c2ccccc2)c(-c2ccccc2)[nH]1)C(=O)NC(C)C [Example 102]	2400 nM
O=C(Nc1ccc(F)cc1F)N(CCCCCSc1nc(-c2ccccc2)c(-c2ccccc2)[nH]1)CCN1CCOCC1 [Example 161, N'-(2,4-difluorophenyl)-N-[5-(4,5-diphenyl-1H-imidazol-2-ylthio)pentyl]-N-[2-(4-morpholinyl)ethyl]-urea]	880 nM
COc1ccc(-c2nc(SCCCCCN(CCN3CCOCC3)C(=O)Nc3ccc(F)cc3F)[nH]c2-c2ccc(OC)cc2)cc1 [Example 162, N-[5-[4,5-bis(4-methoxyphenyl)-1H-imidazol-2-ylthio]pentyl]-N'-(2,4-difluorophenyl)-N-[2-(1-morpholinyl)ethyl]-urea]	1340 nM
CN(CCSc1nc(-c2ccccc2)c(-c2ccccc2)[nH]1)CCN(CCN1CCOCC1)C(=O)Nc1ccc(F)cc1F [Example 181]	2740 nM
CCCCOCCN(CCCCCSc1nc(-c2ccccc2)c(-c2ccccc2)[nH]1)C(=O)Nc1ccc(F)cc1F [Example 261, N-(2-butoxyethyl)-N'-(2,4-difluorophenyl)-N-[5-(4,5-diphenyl-1H-imidazol-2-ylthio)pentyl]-urea]	1750 nM
CCCCOCCN(CCCCCSc1nc(-c2ccccc2)c(-c2ccccc2)[nH]1)C(=O)NC(C)C [Example 262, N-(2-butoxyethyl)-N-[5-(4,5-diphenyl-1H-imidazol-2-ylthio)pentyl]-N'-(1-methylethyl)-urea]	840 nM

Second part, the molecule after the results:

IC50	SMILES
6280 nM	CC(C)NC(=O)N(CCN(C)CCSc1nc(-c2ccccc2)c(-c2ccccc2)[nH]1)CCN1CCOCC1 [Example 183]
6740 nM	O=C(Nc1ccc(F)cc1F)N(CCCCCSc1nc(-c2ccccc2)c(-c2ccccc2)[nH]1)CCOCCO [Example 281]
6840 nM	CC(C)NC(=O)N(CCCCCSc1nc(-c2ccccc2)c(-c2ccccc2)[nH]1)CCOCCO [Example 282, N-[5-(4,5-diphenyl-1H-imidazol-2-ylthio)-pentyl]-N-[2-(2-hydroxyethoxy)-ethyl]-N'-(1-methylethyl)-urea]
840 nM	COc1ccc(-c2nc(SCCCCCN(CCOCCO)C(=O)Nc3ccc(F)cc3F)[nH]c2-c2ccc(OC)cc2)cc1 [Example 283, N-[5-[4,5-bis(4-methoxyphenyl)-1H-imidazol-2-ylthio]pentyl]-N '-(2,4-difluorophenyl)-N-[2-(2-hydroxyethoxy)ethyl]-urea]
2420 nM	COc1ccc(-c2nc(SCCCCCN(CCOCCO)C(=O)NC(C)C)[nH]c2-c2ccc(OC)cc2)cc1 [Example 284]
250 nM	COCCOCCN(CCCCCSc1nc(-c2ccc(OC)cc2)c(-c2ccc(OC)cc2)[nH]1)C(=O)Nc1ccc(F)cc1F [Example 303, N-[5-[4,5-bis(4-methoxyphenyl)-1H-imidazol-2-ylthio]pentyl]-N '-(2,4-difluorophenyl)-N-[2-(2-methoxyethoxy)ethyl]-urea]
360 nM	COCCOCCN(CCCCCSc1nc(-c2ccc(OC)cc2)c(-c2ccc(OC)cc2)[nH]1)C(=O)NC(C)C [Example 304, N-[5-[4,5-bis(4-methoxyphenyl)-1H-imidazol-2-ylthio]-pentyl]-N-[2-(2-methoxyethoxy)-ethyl]-N'-(1-methylethyl)-urea]
4010 nM	CCOCCOCCN(CCCCCSc1nc(-c2ccccc2)c(-c2ccccc2)[nH]1)C(=O)Nc1ccc(F)cc1F [Example 321]
3020 nM	CCOCCOCCN(CCCCCSc1nc(-c2ccccc2)c(-c2ccccc2)[nH]1)C(=O)NC(C)C [Example 322]
41 nM	CCOCCOCCN(CCCCCSc1nc(-c2ccc(SC)cc2)c(-c2ccc(SC)cc2)[nH]1)C(=O)NC(C)C [Example 325]
3980 nM	CCCCCCCN(CCOCCSc1nc(-c2ccccc2)c(-c2ccccc2)[nH]1)C(=O)Nc1ccc(F)cc1F [Example 361]
990 nM	CCCCCCCN(CCOCCSc1nc(-c2ccccc2)c(-c2ccccc2)[nH]1)C(=O)NC(C)C [Example 362]
500 nM	CCCCCCCN(CCOCCSc1nc(-c2ccc(OC)cc2)c(-c2ccc(OC)cc2)[nH]1)C(=O)Nc1ccc(F)cc1F [Example 364]
3680 nM	CCCN(CCOC(=O)CSc1nc(-c2ccccc2)c(-c2ccccc2)[nH]1)C(=O)Nc1ccc(F)cc1F [Example 421]

Biological target: T2, acyl-CoA: cholesterol acyltransferase (ACAT) (Rattus norvegicus, UniProt Q7TQM4)
T2 construct: Microsomes were obtained by differential centrifugation; from tissue; host or cells: liver microsomes of male Sprague Dawley rats
T2 sequence (Q7TQM4 1-524): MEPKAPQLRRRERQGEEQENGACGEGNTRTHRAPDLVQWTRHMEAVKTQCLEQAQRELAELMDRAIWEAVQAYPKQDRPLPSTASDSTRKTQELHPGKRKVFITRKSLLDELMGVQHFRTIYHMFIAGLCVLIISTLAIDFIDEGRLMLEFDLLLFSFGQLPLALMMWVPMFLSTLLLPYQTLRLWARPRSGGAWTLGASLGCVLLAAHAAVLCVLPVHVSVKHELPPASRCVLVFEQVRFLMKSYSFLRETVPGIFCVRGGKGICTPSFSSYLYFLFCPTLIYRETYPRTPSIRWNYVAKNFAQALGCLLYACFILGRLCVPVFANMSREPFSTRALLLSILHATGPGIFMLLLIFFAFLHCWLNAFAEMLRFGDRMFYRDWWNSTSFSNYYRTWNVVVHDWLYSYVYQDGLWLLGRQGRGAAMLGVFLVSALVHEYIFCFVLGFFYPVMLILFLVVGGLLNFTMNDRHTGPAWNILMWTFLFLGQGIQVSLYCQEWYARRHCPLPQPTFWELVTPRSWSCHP
Test: Inhibition of Acyl-CoA: Cholesterol Acyltransferase (ACAT) in hepatic microsomes (in vitro hepatic ACAT activity)
Assay type: biochemical, rat (male Sprague Dawley)
Conditions: 14C-oleoyl-CoA, 15 min preincubation at 37° C., pH 7.4, read-out: Inhibition of Cholesterol Esterification (IC50)
Experimental: The ability of the compounds to inhibit ACAT, the enzyme responsible for the intracellular synthesis of cholesteryl esters, was tested as follows. Male Sprague Dawley rats weighing 150-300 g, were fed rat chow ad libitum. The animals were fasted for twenty-four hours prior to being sacrificed by decapitation. The livers were perfused in situ with 50 ml of cold 0.25M sucrose, excised, and homogenized in three volumes of 0.1M phosphate buffer, pH 7.4, that contained 0.5 mM EDTA (ethylenediaminetetraacetic acid), 1.0 mM glutathione, 0.25M sucrose and […]. Microsomes were obtained by differential centrifugation; the supernatant from an initial spin at 15,000×g for 15 minutes was centrifuged at 105,000×g for 1 hour to pellet the microsomes. The microsomes were suspended in homogenization buffer, reisolated by centrifugation, and stored at -70° C. Microsomes were used within one month of preparation.
The control assay in a final volume of 200 μl consisted of 200 μg of microsomal protein, 75μ<^14 C-oleoyl-CoA (10,000 dpm/nmol) in 0.1M phosphate, pH 7.4, that contained 1 mM glutathione. Compounds were added in 5 μl of DMSO (dimethyl sulfoxide) and additional controls were run with DMSO only. All components, except the oleoyl-CoA, were preincubated for 15 min. at 37° C. prior to the initiation of the reaction by the addition of oleoyl-CoA. The assay was terminated after 10 min. by the addition of 4 ml of chloroform:methanol (2:1, v/v). 20,000 dpm of 3H-choledsteryl oleate and 10 μg of unlabeled cholesteryl oleate and oleic acid were added as an internal standard and carriers, respectively. After allowing 10 min. for lipid extraction, 0.8 ml of deionized water was added to separte the solution into two phases. The lower chloroform phase was collected, dried under nitrogen and resuspended in 2 ml of hexane:diethyl ether (97:3 v/v). The lipids were then loaded onto BAKERSBOND spe* silica gel columns. Extracts were collected in scintillation vials and counted for radioactivity. The specific activity of ACAT in the control incubation averaged 260 pmol/min/mg microsomal protein.

SMILES	IC50
CCCCN(C)CCN(CCOCCSc1nc(-c2ccc(OC)cc2)c(-c2ccc(OC)cc2)[nH]1)C(=O)Nc1ccc(F)cc1F [Example 32, N-[2-(2-(4,5-bis(4-methoxyphenyl)-1H-imidazol-2-ylthio)ethoxy)ethyl]-N-[2-(N-butyl-N-methylamino)ethyl]-N'-(2,4-difluorophenyl) urea]	1500 nM
O=C(Nc1ccc(F)cc1F)N(CCCCCSc1nc(-c2ccccc2)c(-c2ccccc2)[nH]1)CCN1CCOCC1 [Example 161, N'-(2,4-difluorophenyl)-N-[5-(4,5-diphenyl-1H-imidazol-2-ylthio)pentyl]-N-[2-(4-morpholinyl)ethyl]-urea]	66 nM

Now from value to molecule:

IC50	SMILES
480 nM	COc1ccc(-c2nc(SCCCCCN(CCOCCO)C(=O)NC(C)C)[nH]c2-c2ccc(OC)cc2)cc1 [Example 284]
4100 nM	CCCN(CCOC(=O)CSc1nc(-c2ccccc2)c(-c2ccccc2)[nH]1)C(=O)Nc1ccc(F)cc1F [Example 421]
